We go through 3 molecules from patent publication US20120141479A1, “Histone Deacetylase Inhibitors Sensitize Cancer Cells To Epidermal Growth Factor Inhibitors” (priority 2007, published 2012).

The subject of assay [1] is Panc02.03 pancreatic cancer cell line. Nature of the assay: Modified MTT growth inhibition assay. As to conditions: Panc 02.03. It is filed as cell-based. The method, then: (§1) Combination administrations were performed as sequential treatments where the HDAC inhibitor was administer prior to the EGFR inhibitor, or simultaneous treatments in selected cell lines. Concentrations of HDAC inhibitors and EGFR inhibitors are indicated as μM concentrations in all experiments. SNDX275 was administered in three increasing concentrations, with a variety of ranges depending upon the cell line.
(§2) Drugs were diluted in fresh medium before each experiment, and the final DMSO concentration was <0.1%. Growth inhibition was assessed using a modified MTT assay. 2×10^3 cells were plated in each well of 96-well flat-bottomed microtiter plates and drugs were added the next day. […] The microtiter plates were incubated for 4 hours at 37° C. The visible absorbance of each well was measured using an automated plate reader (Molecular Devices, Sunnyvale, Calif.), and data were analyzed using SlideWrite to determine the drug IC50.

Assay [2] concerns 1483 head & neck cancer cell line. In words: Modified MTT growth inhibition assay. It is filed as cell-based. As to conditions: SNDX275 added as first drug. The method, then:
as §1, §2

Assay [3] has as its system FaDu head & neck cancer cell line. Nature of the assay: Modified MTT growth inhibition assay. It is filed as cell-based. The method, then: as §1, §2
In assay [4] the test system is 584 head & neck cancer cell line. Nature of the assay: Modified MTT growth inhibition assay. The class given is cell-based. As to conditions: SNDX275 added as first drug. The method, then:
as §1, §2
(In general: Formazan colour is commonly taken as a measure of viable cells.)

The test system of assay [5] is MSK2922 head & neck cancer cell line. Nature of the assay: Modified MTT growth inhibition assay. The class given is cell-based. As to conditions: SNDX275 added as first drug. Here is the method:
as §1, §2

Assay [6] concerns HPAFII pancreatic cancer cell line. In words: Modified MTT growth inhibition assay. It is filed as cell-based. As to conditions: SNDX275 added as first drug. Here is the method:
as §1, §2

The test system of assay [7] is Panc03.27 pancreatic cancer cell line. In words: Modified MTT growth inhibition assay. The class given is cell-based. As to conditions: Panc 03.27, both drugs added at the same time. Here is the method:
as §1, §2

The test system of assay [8] is UMSCC19 head & neck cancer cell line. In words: Modified MTT growth inhibition assay. The class given is cell-based. The method, then:
as §1, §2

The test system of assay [9] is Detroit562 head & neck cancer cell line. Nature of the assay: Modified MTT growth inhibition assay. The class given is cell-based. Here is the method:
as §1, §2

Assay [10] has as its system HS766T pancreatic cancer cell line. Nature of the assay: Modified MTT growth inhibition assay. It is filed as cell-based. Here is the method: as §1, §2
Assay [11] concerns UMSCC22B head & neck cancer cell line. Nature of the assay: Modified MTT growth inhibition assay. The class given is cell-based. Here is the method: as §1, §2
Assay [12] concerns Panc04.03 pancreatic cancer cell line. In words: Modified MTT growth inhibition assay. The class given is cell-based. As to conditions: Panc 04.03. The method, then:
as §1, §2

Assay [13] deals with NSCLC patients. As to conditions: single agent, phase I studies including chemotherapy resistant NSCLC patients; cited from earlier work.
Assay [14] has as its system A549 NSCLC cell line. Nature of the assay: Apoptosis and cell death analysis. The class given is cell-based. As to conditions: 10 μM gefitinib. The method, then:
The effect of gefitinib on inducing apoptosis and cell death in NSCLC cell lines sensitive and resistant to gefitinib was evaluated. […].

Assay [15] has as its system H157 NSCLC cell line. Nature of the assay: Apoptosis and cell death analysis. It is filed as cell-based. As to conditions: 10 μM gefitinib. Here is the method: (§3) The effect of gefitinib on inducing apoptosis and cell death in NSCLC cell lines sensitive and resistant to gefitinib was evaluated. […] Expression of E-cad was evaluated in these cell lines.
Assay [16] concerns H460 NSCLC cell line. In words: Apoptosis and cell death analysis. The class given is cell-based. As to conditions: 10 μM gefitinib. The method, then:
as §3

In assay [17] the test system is H520 NSCLC cell line. Nature of the assay: Apoptosis and cell death analysis. The class given is cell-based. As to conditions: 10 μM gefitinib. The method, then:
as §3

The subject of assay [18] is EGFR. Nature of the assay: EGFR phosphorylation in E-cad transfected H157 cell lines. It is filed as cell-based. As to conditions: E-cad transfected H157 cell lines treated with EGF. Here is the method: Cell Culture, Drugs and MTS assay. Twenty NSCLC cell lines were used: squamous (NCI-H157, HCC95, HCC15 and H441), large-cell (H460, H1299, H2126 and H1264, a derivative of H460), adeno (Calu3, A549, H2122, H1648, H520, HCC78, HCC193, H2009, HCC44 and H3255) and bronchioalveolar (H358 and H322). The NSCLC cell lines, HCC78, H2126, HCC95, H1299, HCC193, HCC44, HCC15, H2009 were obtained from UTSW and the H3255 was a gift from Dr. Bruce Johnson. All lines were cultured in RPMI medium 1640 under standard conditions. […] The drugs were diluted in fresh media before each experiment, and the final dimethyl sulfoxide concentration was <0.1%. […] Growth inhibition was assessed by MTS (3-(4,5-dimethylthiazol-2-yl)-5-(3-carboxymethoxyphenyl)-2-(4-sulfophenyl)2H-tetrazolium, inner salt) assay (Promega, Madison, Wis.). […] The absorbency of each well is measured using an automated plate reader. The data was analyzed using a SlideWrite program to determine the IC50 of the drug. […] After sonication, the Bradford assay was used for protein quantification. […]
The effect of E-cad on NSCLC cell lines apoptotic response to gefitinib was assessed by transfecting a gefitinib-resistant cell line, H157, with an E-cad-encoding adenovirus. […] Higher expression of E-cad was detected in the H157-E-cad-3 cell line compared to the H157-E-cad-3 cell line. […]

Where [19] appears, read: erlotinib 0.3 μM alone, SNDX275 added as first drug.
Where [20] appears, read: erlotinib 0.3 μM alone, both drugs added at the same time.
The mark [21] stands for this setting: erlotinib 2.0 μM alone, SNDX275 added as first drug.
[22] abbreviates: erlotinib 2.0 μM alone, both drugs added at the same time.
Setting [23] is: erlotinib 6.0 μM alone, SNDX275 added as first drug.
Setting [24] is: erlotinib 6.0 μM alone, both drugs added at the same time.
[25] abbreviates: erlotinib 0.06 μM alone, SNDX275 added as first drug.
The mark [26] stands for this setting: erlotinib 0.06 μM alone, both drugs added at the same time.
Where [27] appears, read: erlotinib 3.00 μM alone, SNDX275 added as first drug.
Setting [28] is: erlotinib 3.00 μM alone, both drugs added at the same time.
Setting [29] is: erlotinib 10.0 μM alone, both drugs added at the same time.

As to `C#Cc1cccc(Nc2ncnc3cc(OCCOC)c(OCCOC)cc23)c1` [erlotinib], the surviving in [1] (setting [19]) is 63.194%; in assay [1] (setting [20]), 54.857%; in assay [1] (setting [21]), 53.632%; in [1] (setting [22]), 53.313%; in [1] (setting [23]) it was 27.404%; in assay [1] (setting [24]), 36.701%. Further, the surviving in assay [2] (erlotinib 6.0 μM alone) is on record as 67.497%; in assay [2] (erlotinib 8.0 μM alone), 52.894%; in assay [2] (erlotinib 10.0 μM alone), 43.652%; in assay [3] (setting [25]), 83.931%; in assay [3] (setting [26]) it was 98.703%; in assay [3] (erlotinib 0.30 μM alone, SNDX275 added as first drug), 49.364%. Also, the surviving in [3] (erlotinib 0.30 μM alone, both drugs added at the same time) is on record as 55.823%; in [3] (setting [27]) it was 24.489%; in assay [3] (setting [28]), 27.463%; in assay [4] (erlotinib 3.0 μM alone), 70.581%; in assay [4] (erlotinib 7.0 μM alone) it was 49.941%; in assay [4] (erlotinib 10.0 μM alone) it was 25.563%. Moreover, the surviving in assay [5] (erlotinib 0.5 μM alone) worked out at 76.960%; in assay [5] (erlotinib 5.0 μM alone) it was 49.683%; in [5] (erlotinib 10.0 μM alone) it was 16.390%; in [6] (erlotinib 0.03 μM alone), 79.346%; in assay [6] (erlotinib 1.00 μM alone), 49.804%; in [6] (erlotinib 6.00 μM alone), 28.170%. Further, the surviving was determined as 73.670% in assay [7] (erlotinib 0.03 μM alone); 43.685% in assay [7] (erlotinib 0.60 μM alone); 19.177% in [7] (erlotinib 6.00 μM alone); 70.495% in assay [8] (erlotinib 0.03 μM alone, SNDX275 added as first drug (first table)); 89.125% in [8] (erlotinib 0.03 μM alone, SNDX275 added as first drug (second table)); 40.636% in assay [8] (erlotinib 2.00 μM alone, SNDX275 added as first drug (first table)). The surviving was found to be 49.820% in assay [8] (erlotinib 2.00 μM alone, SNDX275 added as first drug (second table)); 22.618% in [8] (erlotinib 6.00 μM alone, SNDX275 added as first drug (first table)); 29.934% in [8] (erlotinib 6.00 μM alone, SNDX275 added as first drug (second table)); 81.459% in [9] (setting [25]); 73.569% in assay [9] (setting [26]); 56.459% in assay [9] (erlotinib 0.60 μM alone, SNDX275 added as first drug). The surviving in assay [9] (erlotinib 0.60 μM alone, both drugs added at the same time) is 40.826%; in assay [9] (setting [27]), 28.582%; in assay [9] (setting [28]), 17.946%; in assay [10] (erlotinib 1.0 μM alone, SNDX275 added as first drug) it was 71.523%; in assay [10] (erlotinib 1.0 μM alone, both drugs added at the same time), 77.921%; in assay [10] (setting [23]), 49.547%. For the same molecule, the surviving in [10] (setting [24]) turned out to be 46.785%; in [10] (setting [29]) it was 37.138%; in [11] (erlotinib 3.0 μM alone, SNDX275 added as first drug), 79.839%; in [11] (erlotinib 3.0 μM alone, both drugs added at the same time), 78.643%; in assay [11] (erlotinib 7.0 μM alone, SNDX275 added as first drug), 53.060%; in assay [11] (erlotinib 7.0 μM alone, both drugs added at the same time), 56.412%. Moreover, the surviving in assay [11] (erlotinib 10.0 μM alone, SNDX275 added as first drug) was 29.839%; in assay [11] (setting [29]), 49.762%; in assay [12] (setting [19]), 77.213%; in assay [12] (setting [20]), 65.993%; in assay [12] (setting [21]), 53.936%; in [12] (setting [22]), 63.603%. For the same molecule, the surviving in assay [12] (setting [23]) is 30.300%; in assay [12] (setting [24]) it was 47.335%. Moreover, the response rates entry in assay [13] is “about 10%”.

Turning to `COc1cc2ncnc(Nc3ccc(F)c(Cl)c3)c2cc1OCCCN1CCOCC1` [gefitinib], the “apoptotic or necrotic effect” value in assay [14], in [15], in assay [16] and in assay [17] was “no apoptotic or necrotic effect” each time. Besides, the response rates result in [13] is “about 10%”.

For “EGF: Epidermal growth factor purchased from R&D Systems Inc. (NSDSECPLSHDGYCLHDGVCMYIEALDKYACNCVVGYIGERCQYRDLKWWELR; Epidermal growth factor; UniProt P01133 971-1023, looked up)”, the “increase in EGFR phosphorylation” value in assay [18] is listed as “two fold increase”.
